Laboratory results as given in patent publication US5208344A, “Naphthalenepropionic acid derivatives as anti-inflammatory/antiallergic agents” (American Home Products Corporation, priority 1991, dated 1993).

Experiments:
[1] = target: T1, 5-lipoxygenase (Homo sapiens, UniProt P09917); test: inhibition of 5-lipoxygenase in human whole blood (LTB4); assay type: cell-based; details: human whole blood
T1 construct: Blood is obtained in 50-100 ml quantities from male donors; endogenous in cells; host or cells: human whole blood (leukocytes) from male donors
T1 sequence (P09917 1-674): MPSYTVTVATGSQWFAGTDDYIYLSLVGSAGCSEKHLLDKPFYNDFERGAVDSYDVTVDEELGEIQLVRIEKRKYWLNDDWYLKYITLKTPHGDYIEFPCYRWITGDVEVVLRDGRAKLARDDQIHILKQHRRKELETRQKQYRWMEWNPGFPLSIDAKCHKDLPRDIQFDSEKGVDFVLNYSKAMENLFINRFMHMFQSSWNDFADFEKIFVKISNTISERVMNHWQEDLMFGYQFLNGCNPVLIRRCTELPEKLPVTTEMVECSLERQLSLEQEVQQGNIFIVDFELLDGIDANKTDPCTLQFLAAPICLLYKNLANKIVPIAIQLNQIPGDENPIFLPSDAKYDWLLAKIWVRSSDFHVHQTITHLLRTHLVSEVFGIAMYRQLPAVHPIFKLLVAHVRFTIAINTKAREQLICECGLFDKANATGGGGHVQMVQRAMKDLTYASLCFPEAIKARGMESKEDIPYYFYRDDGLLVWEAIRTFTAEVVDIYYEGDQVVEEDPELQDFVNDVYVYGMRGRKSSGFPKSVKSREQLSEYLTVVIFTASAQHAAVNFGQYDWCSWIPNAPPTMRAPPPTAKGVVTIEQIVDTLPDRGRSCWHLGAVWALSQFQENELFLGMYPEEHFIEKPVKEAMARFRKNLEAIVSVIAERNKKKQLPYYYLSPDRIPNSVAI
Protocol: The assay of this Example measures the ability of the compounds tested to inhibit 5-lipxygenase in human whole blood.
Blood is obtained in 50-100 ml quantities from male donors. White blood cell counts and differentials are made. Two ml of blood are placed in a 15 ml polypropylene test tube. Compounds are solubilized in dimethylsulfoxide and diluted 1:10 in 10% bovine serum albumin in phosphate buffered saline, pH 7.4 resulting in a final dimethylsulfoxide concentration of 0.1% in the blood. Then, compounds are added to the blood in a shaking water bath at 37° C. for 10 minutes prior to the addition of 30 μM calcium ionophore (A23187; Sigma). After ionophore administration, whole blood samples are mixed and incubated for 20 minutes at 37° C. in a shaking water bath. Incubation is terminated by placing samples in an ice bath and immediately adding ethylene glycol-bis-(β-aminoethyl ether)-N,N,N',N'-tetraacetic acid (10 mM). Samples are mixed and centrifuged at 1200×g for 15 minutes at 4° C. Preparation of samples for evaluation by RIA or ELISA is carried out by the following protocol. Plasma is removed from sample tubes, placed in 15 ml polypropylene test tubes containing 8 ml methanol, and then vortexed to precipitate protein. Samples are stored at -70° C. overnight. The next day, samples are centrifuged at 200×g for 15 minutes at 4° C. to pellet the precipitate. Samples are dried in a Savant speed vac concentrator, reconstituted to original volume with ice cold RIA or ELISA buffer, and stored at -70° C. until assayed. The assay for eicosanoids (LTB4, TxB2, and PGE2) is performed as described by the manufacturer of the [^3 H]-RIA kit or ELISA kit (LTB4 -Amersham, TxB2 and PGE2 - Caymen Chemical).
The total eicosanoid level in 2 ml of blood is calculated and reported as ng/10^6 neutrophils. Significance is determined by a one-way analysis of variance with least significant difference (LSD) comparisons to control (p≤0.05) and IC50 's (μM) are determined by regression analysis (Finney, 1978). Drug effects are expressed as percent change form control values.
Compounds tested in vitro are solubilized in dimethylsulfoxide and diluted 1:10 in 10% bovine serum albumin in phosphate buffer saline resulting in a final dimethylsulfoxide concentration of 0.1% in the blood.

[2] = target: T2, LTD4 (Cavia porcellus, UniProt Q2NNR5); test: LTD4 antagonist activity in isolated guinea pig trachea; assay type: cell-based; details: 1 × 10^-5 M
T2 construct: isolated guinea pig trachea; from tissue; host or cells: guinea pig tracheal rings
T2 sequence (Q2NNR5 1-340): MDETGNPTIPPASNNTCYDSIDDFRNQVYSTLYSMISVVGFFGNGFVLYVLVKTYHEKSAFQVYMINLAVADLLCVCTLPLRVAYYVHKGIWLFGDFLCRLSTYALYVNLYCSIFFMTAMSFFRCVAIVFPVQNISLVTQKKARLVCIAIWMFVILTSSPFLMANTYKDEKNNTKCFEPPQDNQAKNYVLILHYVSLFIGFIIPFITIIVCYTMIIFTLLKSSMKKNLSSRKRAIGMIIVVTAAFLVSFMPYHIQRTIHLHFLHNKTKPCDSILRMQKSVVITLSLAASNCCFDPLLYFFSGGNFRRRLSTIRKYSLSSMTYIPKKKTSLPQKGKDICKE
Protocol: The LTD4 antagonist activity of the compounds of the invention is assessed in the in vitro isolated guinea pig trachea assay. Male Hartley guinea pigs (350-400 g) are euthanized by a blow to the head, the neck is opened and the trachea removed. The trachea is maintained in aerated physiological salt solution, cleared of connective tissue and fat and cut into rings approximately 2 mm in width (usually containing two cartilaginous segments per ring). Two pieces of silk suture are then passed through the lumen of the tracheal ring and are tied around the cartilage, one on each side of the trachealis muscle. The tracheal ring is suspended between a glass hook and a force displacement transducer in a 10 ml organ bath for measurement of isometric tension. Tissues are maintained at 37° C. in aerated ([…] /5% CO2) physiological salt solution of the following composition: […] The tracheal rings are maintained at 2 g resting tension and equilibrated for 45 minutes (with frequence washing and readjustment of resting tension). The tracheal rings are first contracted by the addition of carbachol (3×10^-6 M), to determine tissue responsiveness and establish a reference contraction. On attainment of a stable level of contraction (approximately 30 minutes), the tissues are washed several times until baseline tension has been restored and the re-equilibrated for 30 minutes. The tissues are then incubated for 45 minutes with a test antagonist (either 1×10^-6 M or 1×10^-5 M) or 10 μl of an appropriate solvent control (control, non-treated). One tissue in each group serves as the control. Twenty minutes prior to the construction of the LTD4 cumulative concentration-response curve, L-[…]×10^-2 M final bath concentration) is added to inhibit bioconversion of LTD4 to LTE4. Only one LTD4 concentration-response curve is constructed in each tissue. All responses to LTD4 in an individual tissue are measured as a percentage of the reference contraction of that tissue to carbachol. LTD4 antagonist activity is determined by comparison of the concentration response curves of LTD4 in the presence and absence of antagonist. Assessment of the relative rightward shift of the antagonist treated curve relative to the solvent (control) treated tissue is calculated as a concentration ratio (Eq. A) and used in subsequent calculations to derive an antagonist pKB value (Eqs. B and C). In the vent that the maximum response to LTD4 is depressed, the EC50 for that particular curve is determined, an "apparent" pKB reported, and the compound reported as "not-competitive." [formula] If a compound is found to be active and/or depress the maximal response to LTD4, then a range of concentrations of the test compound should be used generating multiple concentration ratios which would than be used to perform a Schild analysis, and determination of a pA2 value where appropriate.

[3] = test system: carrageenan paw edema; test: rat carrageenan paw edema assay; assay type: in vivo; details: Rattus norvegicus, po, 3 h, read-out: Oral ED50 (95% C.L.)
Protocol: The compounds of the invention are further tested in the rat carrageenan paw edema assay to determine their ability to inhibit the acute inflammatory response.
140-180 gm male Sprague-Dawley rats, in groups of 6 animals are injected subcutaneously in the right paw with 0.1 ml of 1% carrageenan at zero time. Mercury plethysmographic readings (ml) of the paw are made at zero time and 3 hours later. Test compounds are suspended or dissolved in 0.5% methylcellulose and given perorally 1 hour prior to carrageenan administration.
The increase in paw volume (edema in ml.) produced by the carrageenan is measured. […] Unpaired Student's t-test is used to determine statistical significance.

Row | SMILES | inhibition at 25 µM [1] [%] | IC50 [1] [µM] | Kb [2] [nM] | ED50 [3] [mg/kg]
1 | CC(NC(=O)NO)c1ccc2cc(OCc3csc(-c4ccccc4)n3)ccc2c1 (single isomer, unassigned; (-)) [Example 36, (-)-N-Hydroxy-N'-[1-[6-(2-phenyl-4-thiazolyl)methoxy-2-naphthalenyl]ethyl]urea] | 86 | 13.5 | > 10000 | 
2 | CC(=O)Oc1ccccc1C(=O)O [Aspirin, reference compound] |  |  |  | 145
3 | C[C@H](NC(=O)NO)c1ccc2cc(OCc3nc4ccccc4s3)ccc2c1 [Example 38, S-(-)-N-[1-[6-(2-Benzothiazolylmethoxy)-2-naphthalenyl]ethyl]-N'-hydroxyurea] | 52 | 34.4 | > 6310 | 
4 | C[C@H](C(=O)N(C)O)c1ccc2cc(OCc3csc(-c4ccccc4)n3)ccc2c1 [Example 39, S(+)-N-Hydroxy-α,N-dimethyl-[6-(2-phenyl-4-thiazolyl)methoxy]-2-naphthaleneacetamide] | 91 | 6.9 | 10000 | 
5 | C[C@H](C(=O)N(C)O)c1ccc2cc(OCc3nc4ccccc4s3)ccc2c1 [Example 41, S-(+)-N-Hydroxy-α,N-dimethyl-6-(2-benzothiazolylmethoxy)-2-naphthaleneacetamideone tenth hydrate] | 83 | 11.4 | 398 | 
6 | C[C@H](C(=O)N(C)O)c1ccc2cc(OCc3ccccn3)ccc2c1 [Example 44, S-(+)-N-Hydroxy-α, N-diomethyl-6-(2-pyridinylmethoxy)-2-naphthaleneacetamide] | 86 | 2 | 1580 | 
7 | C[C@H](C(=O)N(C)O)c1ccc2cc(OCc3nc4ccccc4n3C)ccc2c1 [Example 45, S-(+)-N-Hydroxy-α,N-dimethyl-6-[(1-methyl-1H-benzimidazol-2-yl)methoxy]-2-naphthaleneacetamide] | 75 | 1.1 | 200 | 
8 | C[C@H](C(=O)N(C)O)c1ccc2cc(OCc3nc4ccccc4o3)ccc2c1 [Example 47, S-N-Hydroxy-α, N-dimethyl-6-(2-benzoxazolylmethoxy)-2-naphthaleneacetamide] | 84 | 2.3 | 501 | 
